Test results: patent US4859707A, “Sulfur-substituted phenylacetamides” (Key Pharmaceuticals, Inc., priority 1983, dated 1989)

Columns and labels:
[1] = Stability toward human plasma; assay type: in vitro ADME; conditions: 37.0° C., over 2-3 hours
Procedure: The freshly collected human plasma was stored in a refrigerator and used within 1 week from the date it was collected. A portion of […] at a standard methanol solution of the compound to be tested was mixed with 7.0 ml of plasma, previously equilibrated to 37.0° C., to result in an initial concentration of 0.2 mg/ml. Samples of 1.0 ml were withdrawn from the test medium, mixed immediately with 4.0 ml of ice cold 95% ethanol, and placed in a freezer. When all samples had been collected, they were centrifuged and the supernatant analyzed by HPLC.

[2] = tested on: esterase (carboxylic-ester hydrolase, EC 3.1.1.1); assay: Stability toward purified esterases: esterase (carboxylic-ester hydrolase, EC 3.1.1.1); assay type: in vitro ADME, porcine; conditions: pH 8.0, 37.0° C., over 2-3 hours
Procedure: (§1) The effect of esterase (carboxylic-ester hydrolase, EC 3.1.1.1) and butyryl cholinesterase (EC 3.1.1.8), isolated from porcine liver and horse serum, was tested as follows: A portion of the enzyme and […] of a standard solution of the compound in methanol were added to 2.50 ml of 0.05M TRIS buffer, pH 8.0, previously equilibrated to 37.0° C., resulting in solutions containing 5.2 units of enzyme and 0.4 mg of compound in one ml. Aliquots ([…]) were injected into the column at various intervals.

[3] = tested on: ventricular arrhythmia; assay: Evaluation of antiarrhythmic activity in dogs (ouabain-induced ventricular arrhythmia); assay type: in vivo, dog; conditions: for minimal effective dose: Canis lupus familiaris, iv, ouabain arrhythmia, i.v. infusion 0.5 mg/kg/min, read-out: Dose ± s.d. (dose of compound producing reversion to normal rhythm); for Duration of normal sinus rhythm after drug infusion: after end of i.v. infusion; for Dose required to produce reversion to normal rhythm relative to lidocaine / Duration of the effect relative to lidocaine: compared with lidocaine; for Arrhythmia activity in dogs: in words
Procedure: Dogs of either sex were anesthetized with pentabarbital sodium, 30 mg/kg, i.v. A lead II EKG was recorded and heart rate monitored on a Grass polygraph with appropriate signal treatment modules. […] After a 20 minute stabilization period during which fast paper speed record segments (100 mm/sec) were taken to assess EKG profile, a […] dose of ouabain was injected intravenously as bolus. This was followed by 5 mg/kg doses of ouabain i.v., every 10 minutes, until a ventricular arrthymias occured--at lest 50% ventricular or septal ectopic beats. This usually occurred after a total dose of about 60 mg/kg. After 10 min of sustained arrhythmia, the compound to be tested was given by i.v. in fusion at a rate of 0.5 mg/kg/min (2 ml/min, flow-rate). The infusion was maintained until a normal sinus node heart rhythm was noted. The infusion was stopped and the total dose of compound administered was determined. The length of time that the normal sinus rhythm persisted after the end of infusion of the compound was also determined.
In the table above, "dose" is dose of compound mg/kg producing reversion to normal rhythm. "Duration" is duration in minutes of normal sinus rhythm after drug infusion.

[4] = In vivo evaluation in rats (blood, urine and feces levels); set-up: species or system female Wistar rats; conditions: for Compound in urine after intravenous injection: i.v.
Procedure: A solution of test compound in DMSO was injected slowly through the jugular vein (65 mg/kg) to a group of female Wistar rats (150-200 g), 1.00 ml blood samples were taken at various time intervals, mixed with 2.00 ml of ice cold acetonitrile, and placed in a freezer. When all samples had been collected, they were centrifuged and the supernatant analyzed by HPLC. In a separate experiment urine samples were collected after i.v. administration of the test compound. A solution of test compound in polyethylene glycol was given p.o. to a group of rats (0.25 g/kg) and blood samples analyzed as before. Also, urine and feces samples were analyzed after p.o. administration of the test compound.

[5] = Estimation of LD50 in mice; conditions: mouse, in vivo, ip, intraperitoneal in dimethylsulfoxide, observed for 48 hr
Text: The LD50 in white CD-1 male mice (average mass, 24.0±0.1 g) was estimated.

[6] = tested on: butyryl cholinesterase (EC 3.1.1.8); assay: Stability toward purified esterases: butyryl cholinesterase (EC 3.1.1.8); assay type: in vitro ADME, horse; conditions: pH 8.0, 37.0° C., over 2-3 hours
Procedure: as §1

[7] = Metabolism in bovine liver microsomal preparations; assay type: in vitro ADME; conditions: 37.0° C., pH 8.0, 1 mg/ml
Procedure: Two kg of minced bovine liver were mixed with 4 liters of homogenization medium (0.34M sucrose, 1 mM EDTA, and 5 mM TRIS-HCI buffer ph 7.5) and sieved through a screen. The sieved tissue was homogenized for 2 min in a Tekmar grinder. The homogenate was centrifuged successively at 980 g for 10 min and 10960 g for 10 min. The resulting supernatant was then centrifuged at 31300 g for 45 min. All procedures were carried out at 4° C. The microsomal pallet was suspended in an equal volume of 20 mM TRIS-HCI buffer pH 8.0 containing 1 mM EDTA. Centrifugation of this suspension at 123000 g for 90 min gave a pallet which is referred to as the washed microsomes. This pallet could be stored frozen for months with little loss of activity.
The washed microsomes were mixed in a ratio of 1:2 (v/v) with 50 mM TRIS-HCI buffer ph 8.0. To 3.0 ml of this solution, previously equilibrated to 37.0° C., was added 0.2 ml of a standard solution of the compound to be tested resulting in an initial concentration of 1 mg/ml. Samples of 0.50 ml were withdrawn from the test medium, mixed immediately with 1.0 ml of ice cold 95% ethanol and place in a freezer. When all samples had been collected, they were centrifuged and the supernatant analyzed by HPLC.

[8] = intravenous, after uptake by highly perfused organs; cited from earlier work

Structure (SMILES)	Stability / degradation in human plasma [1]	Stability / degradation by esterase [2]	minimal effective dose [3] [mg/kg]	Duration of normal sinus rhythm after drug infusion [3] [min]	Dose required to produce reversion to normal rhythm relative to lidocaine [3]	Duration of the effect relative to lidocaine [3]	Arrhythmia activity in dogs [3]	Compound in urine after intravenous injection [4]	Bioavailability ([4]; p.o.)	Unchanged compound in feces (in words) ([4]; p.o.)	Unchanged compound in urine ([4]; p.o.)	LD50 at 48 h [5] [mg/kg]	Stability / degradation by butyryl cholinesterase [6]	Hydrolysis by bovine liver microsomes [7]	Unchanged compound in blood ([4]; p.o.)	Absorption after oral administration ([4]; p.o. 0.25 g/kg)	dose excreted ([4]; rat, feces, po, 250 mg/kg, p.o., read-out: Unchanged compound in feces) [%]	Part of the dose left in blood [8]
CCSCC(=O)Nc1c(C)cccc1C [Example 5, 2-Ethylthio-N-(2,6-dimethylphenyl)acetamide]	no degradation could be observed over a period of 2-3 hours	no degradation could be observed over a period of 2-3 hours	2.5 ± 2.8	> 20	somewhat larger doses were required	much longer	considerable arrhythmia activity	Only minimal amounts	good bioavailability	no unchanged compound could be detected in the feces or the urine	no unchanged compound could be detected in the feces or the urine	2100	no degradation could be observed over a period of 2-3 hours	–	–	–	–	–
Cc1cccc(C)c1NC(=O)C[S+](C)C [Example 2, 2-Dimethylsulfonic-N-(2,6-dimethylphenyl)acetamide iodide]	no degradation could be observed over a period of 2-3 hours	no degradation could be observed over a period of 2-3 hours	3.82 ± 0.85	> 15	somewhat larger doses were required	much longer	considerable arrhythmia activity	Only minimal amounts	–	–	nothing in the urine	300	no degradation could be observed over a period of 2-3 hours	hydrolyzed very slowly	significant amounts of the unchanged compound could be detected in the blood	absorbed slowly	~7	–
CCN(CC)CC(=O)Nc1c(C)cccc1C [lidocaine, reference compound]	–	–	1.84 ± 0.32	1.23 ± 0.37	–	–	–	–	–	–	–	–	–	–	–	–	–	about 15%
